Results from patent publication US6737383B1, “Herbicidal oxadiazolidines” (priority 1999, dated 2004).

Key:
rape = assay: Test B pre/postemergence rape; assay type: in vivo, Brassica napus
In short: (§1)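 Herbicidal effect was estimated by eye on a ten-point control scale after plants spent twelve to sixteen days in a greenhouse following soil or foliar treatment. Foliar sprays targeted plants at one to four leaves; all doses were formulated in a non-phytotoxic solvent with surfactant.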

blackgrass = assay: Test B pre/postemergence blackgrass; assay type: in vivo, Alopecurus myosuroides
In short: as §1

bedstraw = assay: Test B pre/postemergence bedstraw; assay type: in vivo, Galium aparine; details: Postemergence; for Plant response rating, Bedstraw: scale 0 to 10, 0 is no effect, 10 is complete control; for Bedstraw plant response rating: scale of 0 to 10 where 0 is no effect and 10 is complete control
In short: as §1

velvetleaf = assay: Test B pre/postemergence velvetleaf; assay type: in vivo, Abutilon theophrasti
In short: as §1

crabgrass = assay: Test B pre/postemergence crabgrass; assay type: in vivo, Digitaria sanguinalis
In short: as §1

giant foxtail = assay: Test B pre/postemergence giant foxtail; assay type: in vivo, Setaria faberii
In short: as §1

wheat = assay: Test B pre/postemergence wheat; assay type: in vivo, Triticum aestivum
In short: as §1

cocklebur = assay: Test B pre/postemergence cocklebur; assay type: in vivo, Xanthium strumarium
In short: as §1

sugar beet = assay: Test B pre/postemergence sugar beet; assay type: in vivo, Beta vulgaris
In short: as §1

corn = assay: Test B pre/postemergence corn; assay type: in vivo, Zea mays
In short: as §1

surinam grass = assay: Test B pre/postemergence surinam grass; assay type: in vivo, Brachiaria decumbens
In short: as §1

wild oat = assay: Test B pre/postemergence wild oat; assay type: in vivo, Avena fatua
In short: as §1

pigweed = assay: Test B pre/postemergence pigweed; assay type: in vivo, Amaranthus retroflexus
In short: as §1

smallflower flatsedge = assay: Test B flood test smallflower flatsedge; assay type: in vivo, Cyperus difformis
In short: (§2)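 Each value is a visual injury score relative to controls, with 10 meaning complete control and 0 no effect. Evaluation took place twelve to sixteen days after the 2-leaf-stage plants were treated and kept in the greenhouse.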

bamyardgrass = assay: Test B flood test barnyardgrass; assay type: in vivo, Echinochloa crus-galli; details: for Plant response rating, Barnyardgrass: scale 0 to 10, 0 is no effect, 10 is complete control; for Barnyardgrass plant response rating: scale of 0 to 10 where 0 is no effect and 10 is complete control
In short: as §2

rice = assay: Test B flood test rice; assay type: in vivo, Oryza sativa
In short: as §2

duck salad = assay: Test B flood test duck salad; assay type: in vivo, Heteranthera limosa; details: for Plant response rating, Ducksalad: scale 0 to 10, 0 is no effect, 10 is complete control; for Ducksalad plant response rating: scale of 0 to 10 where 0 is no effect and 10 is complete control
In short: as §2

purple nutsedge = assay: Test B pre/postemergence purple nutsedge; assay type: in vivo, Cyperus rotundus
In short: as §1

morningglory = assay: Test B pre/postemergence morningglory; assay type: in vivo, Ipomoea hederacea
In short: as §1

soybean = assay: Test B pre/postemergence soybean; assay type: in vivo, Glycine max
In short: as §1

[1] = Postemergence, Rate 250 g/ha, scale 0 to 10, 0 is no effect, 10 is complete control
[2] = Postemergence, Rate 500 g/ha, scale of 0 to 10 where 0 is no effect and 10 is complete control
[3] = Preemergence, Rate 62 g/ha, scale 0 to 10 (0 no effect, 10 complete control)
[4] = Preemergence, Rate 125 g/ha, scale of 0 to 10 where 0 is no effect and 10 is complete control
[5] = Preemergence, Rate 250 g/ha, scale 0 to 10, 0 is no effect, 10 is complete control
[6] = Preemergence, Rate 500 g/ha, scale 0 to 10, 0 is no effect, 10 is complete control
[7] = Postemergence, Rate 125 g/ha, scale 0 to 10, 0 is no effect, 10 is complete control
[8] = Preemergence, Rate 250 g/ha, scale of 0 to 10 where 0 is no effect and 10 is complete control
[9] = Rate 62 g/ha, Postemergence, scale of 0 to 10 where 0 is no effect and 10 is complete control
[10] = Postemergence section (flood test species), Rate 500 g/ha, scale of 0 to 10 where 0 is no effect and 10 is complete control
[11] = flood test species, listed under Postemergence, Rate 250 g/ha, scale 0 to 10, 0 is no effect, 10 is complete control
[12] = Postemergence (flood test), Rate 125 g/ha
[13] = Postemergence section (flood test species), Rate 500 g/ha
[14] = Rate 62 g/ha, Postemergence (flood test species)
[15] = flood test species, listed under Postemergence, Rate 250 g/ha

Compound: CC(C)Cn1c(=O)on(C(=O)N(c2ccc(Cl)cc2)C(C)C)c1=O [Compound 417]
- Plant response rating, Rape (rape; [1]): 0
- Rape plant response rating (rape; [2]): 2
- Plant response rating, Rape (rape; [3]): 0
- Plant response rating, Rape (rape; [4]): 0
- Rape plant response rating (rape; [5]): 5
- Rape plant response rating (rape; [6]): 6
- Plant response rating, Blackgrass (blackgrass; [7]): 0
- Plant response rating, Blackgrass (blackgrass; [1]): 0
- Blackgrass plant response rating (blackgrass; [2]): 0
- Plant response rating, Blackgrass (blackgrass; [3]): 3
- Blackgrass plant response rating (blackgrass; [8]): 7
- Blackgrass plant response rating (blackgrass; [6]): 9
- Blackgrass plant response rating (blackgrass; [9]): 0
- Plant response rating, Bedstraw (bedstraw; Rate 125 g/ha): 0
- Plant response rating, Bedstraw (bedstraw; Rate 250 g/ha): 0
- Bedstraw plant response rating (bedstraw; Rate 500 g/ha): 6
- Bedstraw plant response rating (bedstraw; Rate 62 g/ha): 0
- Plant response rating, Velvetleaf (velvetleaf; [1]): 0
- Velvetleaf plant response rating (velvetleaf; [2]): 0
- Plant response rating, Velvetleaf (velvetleaf; [3]): 0
- Plant response rating, Velvetleaf (velvetleaf; [4]): 0
- Velvetleaf plant response rating (velvetleaf; [5]): 2
- Velvetleaf plant response rating (velvetleaf; [6]): 6
- Plant response rating, Crabgrass (crabgrass; [7]): 0
- Plant response rating, Crabgrass (crabgrass; [1]): 2
- Crabgrass plant response rating (crabgrass; [2]): 2
- Plant response rating, Crabgrass (crabgrass; [3]): 6
- Plant response rating, Crabgrass (crabgrass; [4]): 9
- Crabgrass plant response rating (crabgrass; [5]): 9
- Crabgrass plant response rating (crabgrass; [6]): 10
- Crabgrass plant response rating (crabgrass; [9]): 0
- Plant response rating, Giant foxtail (giant foxtail; [7]): 0
- Plant response rating, Giant foxtail (giant foxtail; [1]): 1
- Giant foxtail plant response rating (giant foxtail; [2]): 8
- Plant response rating, Giant foxtail (giant foxtail; [3]): 4
- Plant response rating, Giant foxtail (giant foxtail; [4]): 9
- Giant foxtail plant response rating (giant foxtail; [5]): 10
- Giant foxtail plant response rating (giant foxtail; [6]): 10
- Giant foxtail plant response rating (giant foxtail; [9]): 0
- Wheat plant response rating (wheat; [2]): 0
- Plant response rating, Wheat (wheat; [3]): 0
- Plant response rating, Wheat (wheat; [4]): 0
- Wheat plant response rating (wheat; [5]): 0
- Wheat plant response rating (wheat; [6]): 2
- Plant response rating, Cocklebur (cocklebur; [7]): 0
- Plant response rating, Cocklebur (cocklebur; [1]): 0
- Cocklebur plant response rating (cocklebur; [2]): 0
- Plant response rating, Cocklebur (cocklebur; [3]): 0
- Plant response rating, Cocklebur (cocklebur; [4]): 0
- Cocklebur plant response rating (cocklebur; [5]): 0
- Cocklebur plant response rating (cocklebur; [6]): 0
- Cocklebur plant response rating (cocklebur; [9]): 0
- Plant response rating, Sugarbeets (sugar beet; [1]): 0
- Sugarbeets plant response rating (sugar beet; [2]): 6
- Plant response rating, Sugarbeets (sugar beet; [3]): 0
- Plant response rating, Sugarbeets (sugar beet; [4]): 0
- Sugarbeets plant response rating (sugar beet; [5]): 2
- Sugarbeets plant response rating (sugar beet; [6]): 6
- Plant response rating, Corn (corn; [7]): 0
- Plant response rating, Corn (corn; [1]): 0
- Corn plant response rating (corn; [2]): 0
- Plant response rating, Corn (corn; [3]): 0
- Plant response rating, Corn (corn; [4]): 0
- Corn plant response rating (corn; [5]): 0
- Corn plant response rating (corn; [6]): 0
- Corn plant response rating (corn; [9]): 0
- Plant response rating, B. signalgrass (surinam grass; [7]): 0
- Plant response rating, B. signalgrass (surinam grass; [1]): 0
- B. signalgrass plant response rating (surinam grass; [2]): 0
- Plant response rating, B. signalgrass (surinam grass; [3]): 2
- Plant response rating, B. signalgrass (surinam grass; [4]): 3
- B. signalgrass plant response rating (surinam grass; [8]): 7
- B. signalgrass plant response rating (surinam grass; Preemergence, Rate 500 g/ha, scale of 0 to 10 where 0 is no effect and 10 is complete control): 7
- B. signalgrass plant response rating (surinam grass; [9]): 0
- Wild oats plant response rating (wild oat; [2]): 0
- Plant response rating, Wild oats (wild oat; [3]): 0
- Plant response rating, Wild oats (wild oat; [4]): 0
- Wild oats plant response rating (wild oat; [5]): 2
- Wild oats plant response rating (wild oat; [6]): 4
- Plant response rating, Redroot pigweed (pigweed; [1]): 0
- Redroot pigweed plant response rating (pigweed; [2]): 3
- Plant response rating, Redroot pigweed (pigweed; [3]): 0
- Plant response rating, Redroot pigweed (pigweed; [4]): 0
- Redroot pigweed plant response rating (pigweed; [5]): 4
- Redroot pigweed plant response rating (pigweed; [6]): 10
- S. Flatsedge plant response rating (smallflower flatsedge; [10]): 9
- Plant response rating, S. Flatsedge (smallflower flatsedge; [11]): 9
- Plant response rating, Barnyardgrass (bamyardgrass; [12]): 0
- Barnyardgrass plant response rating (bamyardgrass; [13]): 8
- Barnyardgrass plant response rating (bamyardgrass; [14]): 0
- Plant response rating, Barnyardgrass (bamyardgrass; [15]): 0
- Rice plant response rating (rice; [10]): 0
- Plant response rating, Rice (rice; [11]): 0
- Plant response rating, Ducksalad (duck salad; [12]): 0
- Ducksalad plant response rating (duck salad; [13]): 3
- Ducksalad plant response rating (duck salad; [14]): 0
- Plant response rating, Ducksalad (duck salad; [15]): 2
- Plant response rating, Nutsedge (purple nutsedge; [1]): 0
- Nutsedge plant response rating (purple nutsedge; [2]): 0
- Plant response rating, Nutsedge (purple nutsedge; [3]): 0
- Plant response rating, Nutsedge (purple nutsedge; [4]): 0
- Nutsedge plant response rating (purple nutsedge; [5]): 0
- Nutsedge plant response rating (purple nutsedge; [6]): 0
- Plant response rating, Morningglory (morningglory; [1]): 9
- Morningglory plant response rating (morningglory; [2]): 9
- Plant response rating, Morningglory (morningglory; [3]): 0
- Plant response rating, Morningglory (morningglory; [4]): 0
- Morningglory plant response rating (morningglory; [5]): 0
- Morningglory plant response rating (morningglory; [6]): 0
- Plant response rating, Soybean (soybean; [1]): 4
- Soybean plant response rating (soybean; [2]): 6
- Plant response rating, Soybean (soybean; [3]): 0
- Plant response rating, Soybean (soybean; [4]): 0
- Soybean plant response rating (soybean; [5]): 0
- Soybean plant response rating (soybean; [6]): 0
